The record followed here is patent US20070031509A1, “Breakthrough to cure psoriasis, psoriatic arthritis and treatment of other unrelated skin disorders, and external rectal and genital itching” (priority 2005, published 2007).

The subject of one experiment is eczema. The experiment can be described thus: Earlier use of urea on eczema symptoms of type 2 diabetic patient. The class given is in vivo, human. Conditions: high blood-sugar level, 16 years ago.
The test system of the next experiment is psoriasis. The experiment can be described thus: Comparison of performance of OTCs, zinc oxide and copper lactate on silvery patches L6-L8. It is filed as in vivo, human. From the text: As mentioned above, the presence and growth of L6, L7 and L8 lesions gave me an opportunity to compare the performance of my invention against the readily available OTCs. As mentioned earlier, coal tar, sea salts and several combinations of acids are used for treatment of psoriasis and eczema.
From June 1966 to March 1996, The U. S. Department of Interior (DOI) employed me as a research engineer. During the course of my employment with DOI, I had conducted research in more than 100 coal and salt mines. I have a sound knowledge of the properties of coal and salts. The following comments are based on my experimentations and my in-depth knowledge of the physical and chemical properties of these minerals. Furthermore, based on my own knowledge and past experience with the OTCs, I became suspicious of the validity of the claims made by the manufactures of OTCs containing coal tar and sea salts. Therefore, I designed a simple experimental procedure to compare effectiveness of readily available OTCs to treat psoriasis. Experimental procedure: Before each topical application, each of the three silvery patches was washed with warm soapy water and towel dried. Each OTC product was gently massaged onto all three silvery patches three times daily. Topical applications were made in accordance with the drug manufacturer's recommendations. At the end of four hours, physical observations were made. Silvery patches were again washed and dried and medication was applied again. Each product was tested for a period of four days. After completion of one test series and start of another, silvery patches were left alone for a period of four days to avoid carryover affects from one product to another.
Immune suppressing medications such as Elidel and Protopic and all other prescription drugs known to potentially contribute to cancer were excluded from this test series. Prescription phototherapy and systemics having different course of action and generally, they are not recommended for mild cases of psoriasis. Therefore, these medications were beyond the scope of this study.
Therefore, based on prior knowledge, for extension of this study, an ointment containing 40% zinc oxide was selected for testing.
8. Copper Lactate: Even though during this testing phase, no bleeding points were developed, it was still decided to explore the impact of copper lactate alone on psoriatic lesions. Copper lactate for this test series was produced by reacting yogurt in a copper container rather than a brass utensil.

[1] abbreviates: after ten days of daily applications.

Turning to `NC(N)=O` [Urea], the “treatment of dry, flaky, cracked, and bleeding symptoms of eczema” value in the experiment on eczema is listed as “totally ineffective”.

For the molecule `CC(O)C(=O)[O-].CC(O)C(=O)[O-].[Cu+2]` (stereo not drawn) [copper lactate], the “reduction in psoriatic lesions” value with psoriasis (after seven days of topical applications) is listed as 20%. Moreover, in the experiment on psoriasis (setting [1]), the “red thickened skin of the lesion whose silvery patch came off” value is reported as “completely disappeared”, the “reduction in size of remaining two silvery lesions” value is reported as 20% and the “silvery patch of one of the psoriatic lesions” value is listed as “flaked off”. The swelling entry in the experiment with psoriasis (after the first day of applications, no bleeding points) is on record as “significant reduction”. In the experiment on psoriasis (after three days of applications), the pain and swelling entry is reported as “completely gone”. Also, the silvery scales entry in the experiment with psoriasis (after three days of topical application) is listed as “fell off”. The “silvery patches on the remaining two lesions” value with psoriasis (further topical applications) is on record as “have not eliminated”.
